From patent US8097610B2, “Derivative having PPAR agonistic activity” (Shionogi & Co., Ltd., priority 2005, dated 2012)

How the values were obtained:
Format in all cases: cell-based
human PPARα (hPPARα) = molecular target: T1, human PPARα (hPPARα) (Homo sapiens, UniProt Q07869); assay: Test for transcriptional activity of PPARα (GAL4 chimeric transcription factor reporter assay in CHO cells); settings: CHO cells transfected with GAL4-hPPARα LBD and pG5luc reporter; 24 hours; luciferase activity
T1 construct: δ: aa 139-C-end; α: aa 167-C-end; expressed in transfected cells; host or cells: CHO cells (transient transfection, FuGene)
T1 sequence (Q07869 167-468 limits assumed): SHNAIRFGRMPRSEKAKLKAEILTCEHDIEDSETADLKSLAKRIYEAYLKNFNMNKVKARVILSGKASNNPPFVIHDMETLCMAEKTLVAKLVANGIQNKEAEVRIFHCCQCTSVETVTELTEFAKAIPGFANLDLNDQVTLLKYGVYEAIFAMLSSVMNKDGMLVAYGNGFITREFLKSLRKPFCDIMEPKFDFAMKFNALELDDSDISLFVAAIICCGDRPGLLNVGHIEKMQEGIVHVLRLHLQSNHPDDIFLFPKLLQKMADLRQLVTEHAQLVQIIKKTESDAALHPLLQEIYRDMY
Text: (§1) A chimeric transcription factor assay, which is commonly used to detect nuclear receptor activity, was employed to measure PPAR transcriptional activity. Specifically, two plasmids, one that expresses the fusion protein of DNA binding domain of yeast transcription factor GAL4 and a ligand binding domain of a receptor, and a reporter plasmid were transiently transfected to CHO cells. The activity of the promoter containing a recognition sequence of GAL4 coded on the reporter plasmid was used as a parameter to estimate the activity of the receptor.
(§2) Plasmid: The ligand binding domain of human PPARδ (hPPARδ) or α(hPPARα) (δ: aa 139-C-end; α: aa 167-C-end) is obtained by PCR amplification using Human Universal Quick-Clone cDNA (CLONTECH). […] Then, each obtained cDNA fragment was subcloned into pBIND vector (Promega) to construct a plasmid expressing the fusion protein with DNA binding domain of yeast transcription factor GAL4. pG5luc vector (Promega) was used as a reporter plasmid.
(§3) Cell culturing and transfection: CHO cells were cultured in 10% FBS-aMEM. With a 96-well plate (Costar), CHO cells, that were dispersed with trypsin treatment, 20000 cells per well and the two plasmids obtained by the above procedure, 25 ng per well, were transfected with FuGene Reagent (Roche) by following the instruction of the manufacture.
(§4) Measurement of the transcriptional activity: CHO cells 100 μl per well, which were transfected as above, were dispensed into the wells in which a test compound dissolved in DMSO 0.5 μl was spotted in advance. After the cells and a test compound were cultured together for 24 hours in a CO2 incubator, the luciferase activity was measured by adding luciferase substrates, PicaGene LT2.0 (Toyo ink) 100 μl per well. LUMINOUS CT-9000D (DIA-IATRON) is used to measure the activity.

human PPARδ (hPPARδ) = molecular target: T2, human PPARδ (hPPARδ) (Homo sapiens, UniProt Q03181); assay: Test for transcriptional activity of PPARδ (GAL4 chimeric transcription factor reporter assay in CHO cells); settings: CHO cells transfected with GAL4-hPPARδ LBD and pG5luc reporter; 24 hours; luciferase activity; concentration showing 1/2 of maximum luciferase activity
T2 construct: δ: aa 139-C-end; α: aa 167-C-end; expressed in transfected cells; host or cells: CHO cells (transient transfection, FuGene)
T2 sequence (Q03181 139-441 limits assumed): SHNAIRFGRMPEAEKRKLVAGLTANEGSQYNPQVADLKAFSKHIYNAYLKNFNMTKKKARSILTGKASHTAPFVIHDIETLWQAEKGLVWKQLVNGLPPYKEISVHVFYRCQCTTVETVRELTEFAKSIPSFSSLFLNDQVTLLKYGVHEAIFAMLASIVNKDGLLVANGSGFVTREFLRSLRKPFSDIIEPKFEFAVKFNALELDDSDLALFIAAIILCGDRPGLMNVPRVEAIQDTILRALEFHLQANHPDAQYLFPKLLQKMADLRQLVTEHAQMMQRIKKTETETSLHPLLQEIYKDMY
Text: as §1, §2, §3, §4

hPPARγ = molecular target: T3, hPPARγ (Homo sapiens, UniProt P37231); assay: Transcriptional activity of PPARγ (Table 9; chimeric transcription factor assay)
T3 construct: expressed in transfected cells
T3 sequence (P37231 238-503 limits assumed): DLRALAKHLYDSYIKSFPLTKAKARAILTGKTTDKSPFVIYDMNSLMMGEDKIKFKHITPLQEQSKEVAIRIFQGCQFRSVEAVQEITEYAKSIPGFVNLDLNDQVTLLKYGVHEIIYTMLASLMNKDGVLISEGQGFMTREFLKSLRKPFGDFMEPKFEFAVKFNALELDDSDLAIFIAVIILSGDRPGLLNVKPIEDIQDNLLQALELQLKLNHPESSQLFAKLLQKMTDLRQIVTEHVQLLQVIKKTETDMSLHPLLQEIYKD
Text: as §1, with “receptor. Cell culturing and transfection: CHO cells were cultured in 10% FBS-aMEM. With a 96-well plate (Costar), CHO cells, that were dispersed with trypsin treatment, 20000 cells per well and the two plasmids obtained by the above procedure, 25 ng per well, were transfected with FuGene Reagent (Roche) by following the instruction of the manufacture. […] LUMINOUS […]) is used to measure the activity.” for “receptor.”

| SMILES | EC50 (human PPARα (hPPARα)) [µM] | EC50 (human PPARδ (hPPARδ)) [µM] | EC50 (hPPARγ) [µM] |
| --- | --- | --- | --- |
| Cc1cc(CN2C[C@@H](C)N(c3nc4ccc(C(F)(F)F)cc4s3)[C@@H](C)C2)cc(OCC(=O)O)c1 [Example 590] | > 10 | 0.026 | > 10 |
| CCCC[C@@H]1CN(Cc2cc(C)cc(OCC(=O)O)c2)CCN1c1nc2ccc(OC(F)(F)F)cc2s1 [Example 854, [3-[(R)-3-butyl-4-(6-trifluoromethoxybenzothiazole-2-yl)-piperazine-1-ylmethyl]-5-methylphenoxy]acetic acid] | > 10 | 0.0044 | > 10 |
| CNc1cccc(-c2cnc(N3CCN(CCOc4cc(CC(=O)O)ccc4Cl)[C@@H](C)C3)s2)c1 [Example 562] | > 10 | 0.029 | 1.9 |
| O=C(O)Cc1cccc(OCCN(C2CCCCC2)C2CCN(c3nc4ccc(Cl)cc4s3)C2)c1 (stereo not drawn) [Example 630] | 2.6 | 0.023 | 4.2 |
| C[C@@H]1CN(C2(CCOc3cc(Cl)cc(CC(=O)O)c3)CCN(c3nc4ccc(Cl)cc4s3)CC2)C[C@H](C)O1 [Example 652] | > 10 | 0.28 | > 10 |

Stronger by EC50 (human PPARα (hPPARα)), values ahead:

| EC50 (human PPARα (hPPARα)) [µM] | EC50 (human PPARδ (hPPARδ)) [µM] | EC50 (hPPARγ) [µM] | SMILES |
| --- | --- | --- | --- |
| 2.5 | 0.019 | 3.3 | C[C@@H]1CN(c2ccc(C(F)(F)F)cn2)C[C@H](C)N1CCOc1cc(CC(=O)O)ccc1Cl [Example 707] |
| 0.54 | 0.02 | 0.8 | COc1ccc(CC(=O)O)cc1OCC1CCN(c2nc3ccc(Cl)cc3s2)CC1 [Example 519] |
| 0.35 | 0.0045 | 0.2 | Cc1cc(CC(=O)O)cc(CN2CCN(c3nc4ccc(C(F)(F)F)cc4s3)[C@@H](CC(C)C)C2)c1 [Example 474] |
| 0.96 | 0.013 | 0.58 | C[C@H]1CN(c2nc3ccc(Cl)cc3s2)CCN1CCOc1cc(Cl)cc(CC(=O)O)c1 [Example 679] |
| 1 | 0.041 | 0.76 | C[C@@H]1CN(c2nc3ccc(Cl)cc3s2)C[C@H](C)N1CCOc1ccc(Cl)c(CC(=O)O)c1 [Example 699] |
| 0.57 | 0.049 | 2.2 | CCCCN(Cc1cccc(CC(=O)O)c1)C1CCN(c2nc3ccc(Cl)cc3s2)C1 (stereo not drawn) [Example 612, [3-[[butyl[1-(6-chlorobenzothiazole-2-yl)pyrrolidine-3-yl]amino]methyl]phenyl]acetic acid] |
| 1.5 | 0.91 | > 10 | O=C(O)Cc1ccc(CN2CCCN(c3nc4ccc(Cl)cc4s3)CC2)s1 [Example 503] |
